One data set concerns Ramos cells. Kind of data set: ROS generation in drug-treated cells, carboxy-H2DCFDA probe, flow cytometry. It is filed as cell-based. The note with it: for blocking of the ROS generation induced by Compound 1: Ramos cells pre-treated 1 hour (NAC 1.0 mM or 10 mM; Tiron 500 mM) prior to Compound 1 0.5 μM for 24 hours. Here is the method:
In these experiments, we monitored the production of ROS using the cell permeable Carboxy-H2DCFDA probe. When this probe is oxidized by ROS, it emits a green fluorescence that can be detected using flow cytometry or fluorescent microscopy. Ramos cells were treated with Compound 1 (0.5 μM) for 24 hours or pre-treated with 1.0 mM or 10 mM NAC for 1 hour prior to addition of Compound 1 was then washed gently once with warm HBSS/Ca/Mg (GIBCO.14025). 25 μM carboxy-H2DCFDA (Invitrogen. C400) working solution was added to cover the cells, and the cells were incubated for 30 minutes at 37° C., protected from light. The cells were gently washed three times in warm HBSS/Ca/Mg. ROS levels, as determined by fluorescence intensity, were determined by flow cytometry (excitation at 495 nm, emission at 529 nm).
Tiron is a direct scavenger of ROS and is a potent inhibitor of oxidative stress. Ramos cells were pre-treated with 500 mM Tiron 1 hour prior to addition of Compound 1 (0.5 μM) for 24 hours, then measurement of ROS levels was performed as in Example 3.
(In general: In flow cytometry, cells or beads pass a laser one at a time.)

Data set [1] has as its system RERF-LC-AI^IVP human lung tumor cells. Kind of data set: Nude mouse xenograft study with fractionated ionizing radiation. It is filed as in vivo. Here is the method: Cells that had been cryopreserved in liquid nitrogen were rapidly thawed at 37° C. and transferred to a tissue culture flask containing growth media and then incubated at 37° C. in a 5% CO2 incubator. […] Cultures were passaged by washing with 10 mL of room temperature phosphate buffered saline (PBS) and then disassociating cells by adding 5 mL 1× trypsin-EDTA and incubating at 37° C. until the cells detached from the surface of the flask. To inactivate the trypsin, 5 mL of growth media was added and then the contents of the flask were centrifuged to pellet the cells. The supernatant was aspirated and the cell pellet was resuspended in 10 mL of growth media and the cell number determined using a hemocytometer.
Animals were housed 4-5/cage in micro-isolators, with a 12 hr/12 hr light/dark cycle, acclimated for at least 1 week prior to use and fed normal laboratory chow ad libitum.

For a further data set, the system named is melanoma. The note with it: other currently used treatments for melanoma, cited from earlier work.
The subject of another data set is Hsp70. Description: Hsp70 induction by Compound 1 in cells pre-treated with Tiron. The note with it: Ramos cells pre-treated with 500 mM Tiron 1 hour prior to Compound 1 0.5 μM for 24 hours. In kind it is cell-based.
[2] abbreviates: RECIST, Efficacy Sample (n = 50 combination, n = 27 Paclitaxel).
Where [3] appears, read: Tables 3 and 4, lines of the applicant's own trial.

The structures appear in SMILES notation. Several values for one entry are separate records, joined by “and”; a condition that tells them apart may be missing. Identical values can stand only once. Entries after “also recorded” stand apart in the source; their conditions may differ. Like-named read-outs stand apart in the source and are kept apart here. Where only a bound is given, the exact number is not on record here.

This is an account of results in patent US7939564B2, “Combination with bis(thiohydrazide amides) for treating cancer” (Synta Pharmaceuticals Corp., priority 2006, dated 2011).

Procedure for Stage 1V melanoma: A total of 81 people with Stage 1V melanoma were tested in a randomized trial with ratios of 2:1, compound (I)+paclitaxel (53 people): paclitaxel alone (28 people). The dosages administered were 213 mg/m^2 compound (I), 80 mg/m^2 paclitaxel, and the dosage regimen was 3 weekly doses per each 4 week cycle. Patients were treated until progression of the disease. Patients who progressed on paclitaxel alone were given the option to crossover to compound (I)+paclitaxel and were treated until progression. The tumor assessments were performed at baseline, Cycle 2, and every other Cycle thereafter.

On to `CN(NC(=O)CC(=O)NN(C)C(=S)c1ccccc1)C(=S)c1ccccc1` [Compound (1)], for which, in the data set with Ramos cells (Ramos cells, Compound 1), the “earliest time at which induction of ROS was observed” value is at most 3 h. The “generation of ROS in drug-treated cells” value with Ramos cells (Ramos cells, Compound 1 0.5 μM, 24 hours, versus DMSO) is listed as “induced the generation of ROS; also recorded: emit more reactive oxygen species than cells treated with DMSO alone”. In addition, the “% T/C” value in data set [1] (100 mg/kg Compound 1 5 times per week combined with 0.5 Gy radiation 3 times per week, dosed 420 minutes after irradiation) turned out to be 47; in data set [1] (100 mg/kg Compound 1 i.v. 5 times per week, 15 doses, alone (mock irradiation)), 112. Also, in data set [1] (100 mg/kg Compound 1 combined with 0.5 Gy radiation, Nude mice), the “toxicity of the combination treatment” value is “not associated with excessive toxicity”.

In the case of `CCOP(=O)(OCC)C(C)NC(=O)N(CCCl)N=O` (stereo not drawn) [Fotemustine], in the data set on melanoma, the “OR (%)” value was 15.2%, the “Survival (months)” value was 7.3 months and the “TTP” value was 55 days.

Take `CC(=O)N[C@@H](CS)C(=O)O` [NAC]: the “blocking of the ROS generation induced by Compound 1” value in the data set on Ramos cells is “almost completely blocked the generation of ROS; also recorded: can be blocked; also recorded: block the production of reactive oxygen species”.

Turning to `CC(=O)O[C@H]1C(=O)[C@@]2(C)[C@H]([C@H](OC(=O)c3ccccc3)[C@]3(O)C[C@H](OC(=O)[C@H](O)[C@@H](NC(=O)c4ccccc4)c4ccccc4)C(C)=C1C3(C)C)[C@]1(OC(C)=O)CO[C@@H]1C[C@@H]2O` [Paclitaxel], in the data set with Stage 1V melanoma (Kaplan-Meier estimate, Efficacy Sample, 213 mg/m^2 compound (I), 80 mg/m^2 paclitaxel, 3 weekly doses per 4 week cycle), the “Time to Progression (days), 25th percentile” value is listed as 49.0 days. Also, the “Time to Progression (days), 75th percentile” value with Stage 1V melanoma (Kaplan-Meier estimate, Efficacy Sample, same regimen) was 106.0 days. Also, the “Time to Progression (days), Median” value in the data set on Stage 1V melanoma (Kaplan-Meier estimate, Efficacy Sample, same regimen, log-rank p-value 0.017) is 56.0 days. In the data set on Stage 1V melanoma (RECIST, Efficacy Sample), the “Best Overall Response: Partial Response (PR), percent of patients” value is “(3.7%)” and the “Best Overall Response: Progressive Disease (PD), percent of patients” value was “(59.3%)”. Also, in the data set on Stage 1V melanoma (setting [2]), the “Best Overall Response: Complete Response (CR), number of patients” value is given as 0; the “Best Overall Response: Partial Response (PR), number of patients” value was 1; the “Best Overall Response: Progressive Disease (PD), number of patients” value is on record as 16; the “Best Overall Response: Stable Disease (SD), number of patients” value turned out to be 10. Besides, in the data set with Stage 1V melanoma (RECIST, Efficacy Sample, Two-Sided Fisher's Exact Test p-value 0.149), the “CR + PR” value was 3.7%. In the data set on Stage 1V melanoma (setting [3]), the “CR (%)” value was found to be 0%, the “OR (%)” value was 3.7%, the “PR (%)” value was 3.7% and the “TTP” value is recorded as 57 days. Moreover, the “OR (%)” value in the data set on melanoma (listed as Paclitaxel (Taxol)) was 12% and 17.8%.

As for `CNC(=O)c1cc(Oc2ccc(NC(=O)Nc3ccc(Cl)c(C(F)(F)F)c3)cc2)ccn1` [Sorafenib], in the data set with melanoma, the “PR (%)” value is reported as 2.6%.

Consider `CC/C(=C(\c1ccccc1)c1ccc(OCCN(C)C)cc1)c1ccccc1` [Tamoxifen], for which, in the data set on melanoma, the “CR (%)” value was 1%, the “OR (%)” value is 4.9% and the “PR (%)” value is recorded as 3.9%.

Turning to `O=S(=O)(O)c1cc(O)c(O)c(S(=O)(=O)O)c1` [Tiron], in the data set on Ramos cells, the “blocking of the ROS generation induced by Compound 1” value is listed as “blocked the ability of Compound 1 to generate ROS; also recorded: block the production of reactive oxygen species”. Further, in the data set with Hsp70, the “blocking of the Hsp70 induction by Compound 1” value is given as “blocked; also recorded: blocks the induction of Hsp70”.
